A word on the IC50: it is the concentration needed to halve the response being measured.

Results on 32 molecules are retold here after US20130172342A1, “BENZIMIDAZOLE DERIVATIVES AS SELECTIVE BLOCKERS OF PERSISTENT SODIUM CURRENT” (Allergan, Inc., priority 2011, published 2013).

Holding throughout (assay type): cell-based
For test [1], the system named is persistent sodium currents. Description: FLIPR sodium depletion/repletion assay (voltage-sensitive dyes). Conditions: for IC50: 8-point concentration-response, antagonism of persistent current; for HTS % Block: single concentration HTS protocol, inhibition of the control response. Here is the method: To identify compounds that block persistent sodium currents, they were tested in a sodium depletion/repletion assay in which changes in the fluorescence of voltage-sensitive dyes measured in a Fluorometric Imaging Plate Reader (FLIPR) were used to infer the effects of the compounds on persistent sodium currents. The compounds were first tested in a single concentration HTS protocol.

Test [2] has as its system transient sodium currents. Description: IonWorks automated patch clamp, whole-cell voltage clamp. The following applies: inhibition of transient sodium currents, read-out: IW IC50. The method, then: To determine the selectivity of effects of these compounds on the persistent current, the inhibition of transient sodium currents using an automated patch clamp was also tested for the compounds. For direct measurement of Na+ currents the IonWorks automated patch clamp system was used. The IonWorks system is a high-throughput electrophysiological instrument that performs whole-cell voltage clamp recordings in a 384-well plate format.
On the technique in general: Patch clamp records ionic current or voltage across a cell membrane.

For test [3], the system named is Nav1.3 or Nav1.6 channels. Briefly: gigohm-seal manual patch-clamp (MPC) in HEK cells stably transfected with sodium channels. The following applies: for block of persistent versus transient sodium currents: FIG. 1, percentage of control current at steady state, n=3; for concentration effective in blocking 50% of the persistent current: HEK cells expressing Nav1.3 or Nav1.6, FIG. 1. The method, then:
Nav1.3 or Nav1.6 channels were expressed in HEK cells, currents were measured using standard MPC electrophysiological techniques. Data are summarized from at least 3 experiments for each concentration tested and were normalized to the control currents before compound addition. Data are presented as the mean and standard error of the mean (n=3) of the percentage of the control current observed at steady state after compound addition.
Therefore, the efficacy and selectivity of the identified persistent current antagonists were verified using conventional gigohm-seal manual patch-clamp (MPC).
MPC experiments were conducted on human embroynic kidney (HEK) cells stably transfected with sodium channels were plated on coverslips. Cells were patch clamped using standard patch-clamp techniques (Hamill, O. P., A. Marty, et al., 1981 Pflugers Arch. 391:85-100). Once sufficient persistent current was established, buffer was introduced into the chamber at a constant flow rate of […] until the persistent current stabilized. Subsequent concentration-response experiments were conducted using this same flow rate. After application of the compound, current amplitude was monitored until equilibrium was established. The data recorded at equilibrium was normalized to the control current measured during perfusion with control buffer in the absence of a test compound. Adequate solution perfusion and gigohm seal stability were monitored throughout the experiment. The compound's antagonism of persistent or transient sodium currents is expressed as the IC5O of block for the respective current (see Table 1). Selectivity for block of the persistent current was calculated as the ratio of the IC5O for the transient current divided by the IC5O for the persistent current.
Direct measurement of the sodium current in cells expressing either Nav1.3 or
As shown for the exemplary compounds (compound #1 in Table 1 and Compound A shown below)

Molecules are shown by their SMILES.

For `COc1ccccc1OCCn1c(CN2CCCCC2)nc2ccccc21`, in test [1], the IC50 turned out to be 0.347 µM and the “HTS % Block” value is on record as 94.8%. For the same molecule, the IC50 in test [2] is over 30 µM.

As for `Cc1cccc(OCCn2c(CN3CCCCC3)nc3ccccc32)c1C`, in test [1], the IC50 came to 0.452 µM and the “HTS % Block” value stood at 78.9%. For the same molecule, the IC50 in test [2] came out at 13.8 µM.

For the molecule `COc1cccc(OCCn2c(CN3CCCCC3)nc3ccccc32)c1`, in test [1], the IC50 is 0.521 µM and the “HTS % Block” value is 96.5%. For the same molecule, in test [2], the concentration for half-maximal inhibition (IC50) is over 30 µM.

Turning to `Cc1ccc(C)c(OCCn2c(CN3CCCCC3)nc3ccccc32)c1`, in test [1], half-maximal inhibition (IC50) was put at 0.559 µM and the “HTS % Block” value was found to be 88.9%. The IC50 in test [2] came to 22.8 µM.

Regarding `Cc1ccc(OCCn2c(CN3CCCCC3)nc3ccccc32)cc1C`, in test [1], the IC50 was 0.589 µM and the “HTS % Block” value is listed as 80.1%. In test [2], the IC50 amounted to 23.4 µM.

In the case of `Cc1ccc(OCCn2c(CN3CCCCC3)nc3ccccc32)cc1`, in test [1], the IC50 is 0.751 µM and the “HTS % Block” value turned out to be 94.6%. Besides, the IC50 in test [2] was over 30 µM.

For `COc1ccccc1OCCCCn1c(CN2CCCCC2)nc2ccccc21`, in test [1], inhibition was half-maximal at 0.83 µM (IC50) and the “HTS % Block” value stood at 95.5%. Besides, the IC50 in test [2] was over 30 µM.

`COc1ccc(OCCn2c(C(C)N3CCCCC3)nc3ccccc32)cc1` (stereo not drawn): in test [1], the IC50 was determined as 0.95 µM and the “HTS % Block” value came out at 95.2%. The IC50 in test [2] is over 30 µM.

As for `Clc1ccc(OCCn2c(CN3CCCCC3)nc3ccccc32)cc1`, in test [1], the IC50 was found to be 1.46 µM and the “HTS % Block” value is recorded as 80.7%. Also, the IC50 in test [2] amounted to 27.8 µM.

Consider `Cc1ccccc1OCCn1c(CN2CCCCC2)nc2ccccc21`, for which the IC50 is 5.56 µM in test [1] and over 30 µM in test [2]. The “HTS % Block” value in test [1] is given as 93.6%.

As for `CC(C)N(C(=O)Cn1c(CN2CCCCC2)nc2ccccc21)c1ccccc1`, the IC50 is 6.35 µM in test [1] and over 30 µM in test [2]. Moreover, the “HTS % Block” value in test [1] is reported as 84.2%.

For the molecule `CCn1c(C(C)N2CCCCC2)nc2ccccc21` (stereo not drawn), in test [1], it took 16.3 µM to reach half-maximal inhibition (IC50) and the “HTS % Block” value stood at 90.6%. Further, in test [2], the IC50 is over 30 µM.

Turning to `C/C=C/c1ccc(OCCn2c(C(C)N3CCCCC3)nc3ccccc32)c(OC)c1` (stereo not drawn), in test [1], the IC50 was over 30 µM and the “HTS % Block” value turned out to be 34.6%. In test [2], the IC50 was over 30 µM.

As to `Cc1cccc(C)c1OCCn1c(CN2CCOCC2)nc2ccccc21`, in test [1], the IC50 came out at 0.729 µM and the “HTS % Block” value stood at 95.2%. Moreover, the IC50 in test [2] was over 30 µM.

On to `Cc1cccc(C)c1OCCCn1c(CN2CCOCC2)nc2ccccc21`, for which, in test [1], the half-inhibitory concentration (IC50) came out at 0.852 µM and the “HTS % Block” value is recorded as 98.9%. Besides, the IC50 in test [2] was over 30 µM.

`C=CCc1ccccc1OCCn1c(CN2CCOCC2)nc2ccccc21`: in test [1], the IC50 was 1.14 µM and the “HTS % Block” value turned out to be 91.5%. In addition, the concentration for half-maximal inhibition (IC50) in test [2] is over 30 µM.

Take `Cc1cc(C)cc(OCCn2c(CN3CCOCC3)nc3ccccc32)c1`: in test [1], 1.47 µM corresponded to half-maximal inhibition (IC50) and the “HTS % Block” value is 92.6%. Besides, in test [2], the IC50 is over 30 µM.

For `Cc1ccc(C)c(OCCn2c(CN3CCOCC3)nc3ccccc32)c1`, in test [1], the IC50 came to 2.3 µM and the “HTS % Block” value was found to be 92.7%. Further, the IC50 in test [2] was over 30 µM.

`Cc1ccccc1OCCn1c(CN2CCOCC2)nc2ccccc21`: in test [1], the IC50 was 3.24 µM and the “HTS % Block” value worked out at 92.7%. Further, the 50% inhibitory concentration (IC50) in test [2] was over 30 µM.

Take `Cc1cccc(OCCn2c(CN3CCOCC3)nc3ccccc32)c1C`: in test [1], 3.53 µM corresponded to half-maximal inhibition (IC50) and the “HTS % Block” value is listed as 97.3%. Also, the IC50 in test [2] was over 30 µM.

For the molecule `CCc1ccc(OCCn2c(CN3CCOCC3)nc3ccccc32)cc1`, the IC50 in test [1] stood at 3.67 µM; in test [2], 30 µM. Besides, the “HTS % Block” value in test [1] is listed as 90.8%.

`Cc1ccc(OCCn2c(CN3CCOCC3)nc3ccccc32)c(C)c1`: in test [1], the half-maximal inhibitory concentration (IC50) worked out at 4.52 µM and the “HTS % Block” value is on record as 79.3%. Also, the IC50 in test [2] is over 30 µM.

For `C=CCc1ccc(OCCn2c(CN3CCOCC3)nc3ccccc32)c(OC)c1`, in test [1], it took 5.12 µM to reach half-maximal inhibition (IC50) and the “HTS % Block” value was determined as 70.7%. Further, the IC50 in test [2] was at least 30 µM.

Consider `Cc1ccc(OCCn2c(CN3CCOCC3)nc3ccccc32)cc1`, for which the IC50 in test [1] is 6.38 µM; in test [2], over 30 µM. Further, the “HTS % Block” value in test [1] is 92.3%.

On to `c1ccc(OCCn2c(CN3CCOCC3)nc3ccccc32)cc1`, for which the results for the IC50 in test [1] and in test [2] were 7.79 µM and over 30 µM, respectively. Also, the “HTS % Block” value in test [1] stood at 99.2%.

For `Cc1cccc(OCCn2c(CN3CCOCC3)nc3ccccc32)c1`, in test [1], half-maximal inhibition (IC50) required 7.85 µM and the “HTS % Block” value is on record as 86.5%. The IC50 in test [2] was over 30 µM.

Consider `COc1ccc(OCCn2c(C(C)N3CCOCC3)nc3ccccc32)cc1` (stereo not drawn), for which the concentration for half-maximal inhibition (IC50) is 9.81 µM in test [1] and over 30 µM in test [2]. Further, the “HTS % Block” value in test [1] was found to be 92.9%.

With `C/C=C/c1ccc(OCCn2c(CN3CCOCC3)nc3ccccc32)c(OC)c1`, in test [1], half-maximal inhibition (IC50) was put at 18.2 µM and the “HTS % Block” value turned out to be 75.7%. The IC50 in test [2] was over 30 µM.

For the molecule `COc1ccc(OCCn2c(CN3CCOCC3)nc3ccccc32)cc1`, in test [1], the IC50 was over 30 µM and the “HTS % Block” value is 57.7%. The IC50 in test [2] was over 30 µM.

Regarding `COc1ccccc1OCCn1c(CN2CCOCC2)nc2ccccc21`, the half-maximal inhibitory concentration (IC50) in test [1] and in test [2] was over 30 µM throughout. Also, the “HTS % Block” value in test [1] was determined as 70.1%.

Take `Cc1cccc(C)c1OCCn1c(CN2CCCCC2)nc2ccccc21` [Compound #1, 1-[2-(2,6-Dimethylphenoxy)ethyl]-2-piperidin-1-ylmethyl-1H-benzimidazole]: the IC50 in test [1] was 0.066 µM; in test [2] it was over 30 µM. In addition, in test [3], the “block of persistent versus transient sodium currents” value is on record as “effective in blocking persistent sodium currents at concentrations that did not affect transient currents”. In addition, the “concentration effective in blocking 50% of the persistent current” value in test [3] is listed as “low to submicromolar”.

Regarding `Cc1ccc(C(C)C)c(OCCn2c(CN3CCOCC3)nc3ccccc32)c1` [Compound A], in test [3], the “block of persistent versus transient sodium currents” value is recorded as “effective in blocking persistent sodium currents at concentrations that did not affect transient currents” and the “concentration effective in blocking 50% of the persistent current” value was “low to submicromolar”.
